Reference: US7504384B2 (priority 2000, dated 2009)
pIC50: −log10 of the molar value. Read-outs that look alike come from different tables or passages of the source.

Assays:
[1] = tested on: Influenza A (H1N1 strain) virus; assay type: cell-based, Influenza type A, A/New Caledonia/20/99 (H1N1); settings: high concentration; Visual Observation Assay; Influenza A (H1N1 strain)
[2] = tested on: Influenza A (H1N1 strain) virus; assay type: cell-based, Influenza type A, A/New Caledonia/20/99 (H1N1); settings: high concentration, Neutral Red Uptake Assay
[3] = tested on: Influenza A (H3N2 strain) virus; assay type: cell-based, Influenza type A, A/Panama/2007/99 (H3N2)
[4] = tested on: Influenza A (H3N2 strain) virus; assay type: cell-based, Influenza type A, A/Panama/2007/99 (H3N2); settings: high concentration, Neutral Red Uptake Assay
[5] = tested on: Guinea pig tracheal rings; assay: Inhibition of tracheal ring contraction; settings: Lipid-conjugate 10 μM
Protocol: A muscle preparation (tracheal rings) was isolated from rats (Experiments 3.1-3.3) and from guinea pigs (Experiments 3.4-3.5). Muscle contraction was measured by attachment of the muscle to a pressure transducer, which works much like a spring. Administration of asthmatogenic substances such as endothelin-1 (ET) and acetylcholine (AcCh) induces muscle contraction. Endothelins are released upon vascular endothelial injury, and they activate macrophages and act as strong chemo-attractants for circulating monocytes. Endothelins affect vascular smooth muscle fibroblast proliferation; help regulate vascular, airway, and intestinal smooth muscle tone; increase the activity of bone alkaline phosphatase; stimulate release of atrial natriuretic peptide (ANP) from atrial cardiocytes; inhibit the release of renin from glomeruli and modulate norepinephrine at sympathetic nerve termini. Opposing vasomotor effects are regulated through the binding of distinct endothelin receptors for vasoconstriction and vasodilation. Endothelins have been linked to atherosclerosis and various cardiovascular disease states. ET-1 is important in congestive heart failure, renal failure, pulmonary hypertension, hyperlipidemia and metastatic prostate cancer. On the other hand, AcCh is one of the three main receptors on the bronchi of the lungs, which are basically tubes with muscular walls. Stimulation of bronchial AcCh receptor induces muscle contraction and decreased airflow through the bronchi. Thus, ET and AcCh were used to experimentally induce muscle contraction in the lungs as a model of obstructive respiratory disorders.
Experiment 3.4: Guinea pig tracheal rings (in a linear array), immersed in a ringer bath, were connected to an apparatus measuring the length of the ring chain. […] Human airways have both Histamine (H)-1 and H2 receptors. H1 receptors, which mediate bronchoconstriction, predominate. Histamine application in experimental models produces signs and symptoms of asthma, such as narrowing of the airways, mucus secretion, wheezing, and coughing.

[6] = tested on: PGE2 and TXB2 production by guinea pig tracheal rings; assay: Tracheal tissue PGE2 and TXB2 production (radioimmunoassay); settings: Histamine (40 μM) + Compound XXVI (10 μM); histamine alone 5.6
Protocol: Experiment 3.5: Guinea pig tracheal rings were incubated with or without Compound XXVI for 30 minutes prior to stimulation. The medium was collected after 30 minutes, and PGE2 and TXB2 levels were determined by radioimmunoassay (Table 3.2). PGE2 and TXB2 are metabolites of arachidonic acid produced during inflammatory response.

[7] = tested on: mice; assay: Acute (7 day) toxicity test; assay type: in vivo; settings: mice, one week after a single i.p. dose of 1000, 500 or 200 mg/kg; versus untreated mice
Protocol: […] Mortality rate, body weight, blood count (red and white cells), hematocrit, and internal organ histology after sacrifice were assessed. These parameters were compared in Lipid-conjugate-treated and in control, untreated mice.

[8] = tested on: HIV-1IIIB; assay: Inhibition of p24 production (HIV-1IIIB infection of MT-2 cells); assay type: cell-based; settings: fourth day, p24 ELISA
Protocol: Experiment 1.2: Inhibition of HIV-1IIIB Infection
After 1 h, half of the culture medium was changed and replaced by fresh medium (with/without Lipid-conjugate) and after 24 h, the second half of the culture medium was changed and replaced by fresh medium (with/without Lipid-conjugate). On the fourth day after incubation at 37° C., 100 μl of culture supernatants were collected from each well and an equal volume of fresh medium was added to the wells. The collected supernatants were mixed with an equal volume of 5% (v/v) Triton X-100 and assayed for p24 antigen using an ELISA kit from Coulter Immunology (Hialeah, Fla.).

[9] = tested on: HIV-1IIIB-infected H9 cells and uninfected MT-2 cells; assay: Inhibition of fusion between HIV-infected and uninfected cells; assay type: cell-based; settings: for IC50 (mean ± SD), inhibition of fusion / IC90 (mean ± SD), inhibition of fusion: H9/HIV-1 IIIB + MT-2 cells, 2 h; for pIC50 / IC90: Table 1.4
Protocol: In this assay, HIV-1IIIB-infected H9 cells were labeled with BCECF (2′,7′-bis(2-carboxyethyl)-5-6-carboxyfluorescein-acetoxymethyl-ester, Molecular Probes, Eugene, Oreg.) according to the manufacturer's instructions. BCECF-labeled H9/HIV-1 IIIB cells (10^4) were mixed with 1×10^5 uninfected MT-2 cells. After incubation in a 96-well plate at 37° C. for 2 h, the fused and unfused labeled cells were counted under an inverted fluorescence microscope at ×160 magnification. At least 200 BCECF-labeled cells were counted and the proportion of fused cells was determined Fusion tests were carried out in the presence and absence of graded quantities of the tested Lipid-conjugates. […] The IC50 represents the concentration of a drug that is required to achieve 50% inhibition. Similarly, the IC90 represents the concentration of a drug that is required to achieve 90% inhibition.

[10] = biological target: V3 (third variable) domain of the HIV-1 envelope glycoprotein gp120; assay: V3 antibody binding (ELISA); parameters: species or system human immunodeficiency virus type 1 (HIV-1); settings: standard ELISA
Protocol: V3 antibody binding is an assay that uses an antibody that binds to the V3 (third variable) domain of the human immunodeficiency virus type 1 (HIV-1) envelope glycoprotein gp120. Anti-V3 domain antibodies may provide an indicator of the presence and amount of HIV. V3 antibody binding was determined by standard ELISA.

[11] = tested on: vaccinia virus (WR strain); assay type: cell-based; settings: 48 hr
[12] = tested on: Punta Toro virus; assay type: cell-based, strain Adames
[13] = tested on: Punta Toro virus; assay type: cell-based, strain Adames; remark: listed apart in the source
[14] = tested on: Influenza B virus; assay type: cell-based, Influenza type B, B/Hong Kong/330/02; settings: lower range of doses, at the concentrations tested
[15] = tested on: Respiratory syncytial virus; assay type: cell-based, strain A2; settings: lower range of doses, at the concentrations tested
[16] = tested on: Human RBC; assay: Prevention of hemolysis of human red blood cells; assay type: cell-based; settings: 20 min, 10 μM Lipid-conjugate, None = 1.000
Protocol: Hemolysis, the breakdown of red blood cells (RBC), may be either a primary disease in itself, or a syndrome associated with another disease or physiological insult. In order to determine the effect of Lipid-conjugates on hemolysis, red blood cells were incubated in the presence of known membrane destabilizing agents and the release of hemoglobulin into the extracellular medium was detected.
Human RBC were washed in saline and suspended in Hanks buffer (pH 7.4). Hemolysis was induced in the absence or presence of 10 μM Lipid-conjugates by treatment with either 5 U/ml streptolysin O (SLO), 25 U/ml streptolysin S (SLS), or 5 μg/ml lysophosphatidylcholine (lyso-PC) for 20 min. The cell membranes were spun and the hemoglobin content in the supernatant was determined by measuring the O.D. at 540 nm (Table 5.1).

[17] = lower range of doses, at the concentrations tested

| Compound | toxicity: mortality rate, body weight, blood count, hematocrit, internal organ histology [7] | IC50 (mean ± SD), inhibition of p24 production [8] | IC90 (mean ± SD), inhibition of p24 production [8] | IC50 (mean ± SD), inhibition of fusion [9] | IC90 (mean ± SD), inhibition of fusion [9] | pIC50 [10] | pIC50 [8] | IC90 [8] | % inhibition [11] | Virus titer [11] | pIC50 [9] | IC90 [9] | also measured |
| --- | --- | --- | --- | --- | --- | --- | --- | --- | --- | --- | --- | --- | --- |
| NC(=O)c1ncn([C@@H]2O[C@H](CO)[C@@H](O)[C@H]2O)n1 [Ribavirin, reference compound] |  |  |  |  |  |  |  |  |  |  |  |  | SI (IC50/EC50) [1]: 22; SI (IC50/EC50) [2]: 25; SI (IC50/EC50) ([3]; high concentration, Visual Observation Assay, Influenza A (H3N2 strain)): 56; SI (IC50/EC50) [4]: 36 |
| PE conjugated to CMC [Compound XXVI] | did not alter the parameters |  |  |  |  |  |  |  |  |  |  |  | % Inhibition of tracheal ring contraction ([5]; stimulant Endothelin-1 (100 nM)): 92 ± 1.1%; % Inhibition of tracheal ring contraction ([5]; stimulant Histamine (20 μM)): 69 ± 0.1%; % Inhibition of tracheal ring contraction ([5]; stimulant Phospholipase (0.5 μ/ml) (crotalus atrox type II)): 100 ± 0.3%; TXB2 [6]: 1.75 ng/mL |
| PE conjugated to Polygeline (haemaccel) [Compound XXVII] |  | 375.8 ± 119.5 mg/L | >500 mg/L | >500 mg/L | >500 mg/L |  |  |  |  |  |  |  |  |
| dimyristoyl-phosphatidyl-ethanolamine linked to HA [Compound XXIII] |  | 118.0 ± 16.8 mg/L | 296.3 ± 104.0 mg/L | 122.8 ± 14.8 mg/L | 219.8 ± 10.6 mg/L | 5.52 | 5.75 | 4.44 µM | 99.9% | 7.7 × 10^4 PFU/culture | 5.74 | 3.3 µM |  |
| dipalmitoyl-phosphatidyl-ethanolamine (PE) conjugated to chondroitin-sulfate A [Compound XXV] | induced hemorrhage | 72.5 ± 8.0 mg/L | 106.0 ± 10.3 mg/L | >500 mg/L | >500 mg/L | 6.70 | 5.84 | 2.12 µM | 62.8% | 3.2 × 10^7 PFU/culture | < 5.00 | > 10 µM | SI (IC50/EC50) [12]: 0; EC50 ([12]; low concentrations, Visual Observation Assay, Punta Toro A): >100 mg/L; virus inhibitory effect against Punta Toro virus [12, 17]: did not display a virus inhibitory effect; SI (IC50/EC50) [13]: 0; EC50 ([13]; low concentrations, Neutral Red Uptake Assay, Punta Toro A): >100 mg/L; virus inhibitory effect against influenza B [14]: did not demonstrate a virus inhibitory effect; virus inhibitory effect against RSV [15]: did not demonstrate a virus inhibitory effect; virus inhibitory effect against influenza A (H3N2 strain) [3, 17]: did not demonstrate a virus inhibitory effect |
| hyaluronic acid [HA, reference compound] |  |  |  |  |  |  |  |  |  |  |  |  | HEMOLYSIS (O.D. AT 540 nm), Lyso-PC ([16]; 5 μg/ml lysophosphatidylcholine): 1.875 O.D.; HEMOLYSIS (O.D. AT 540 nm), SLO ([16]; 5 U/ml streptolysin O): 1.000 O.D.; HEMOLYSIS (O.D. AT 540 nm), SLS ([16]; 25 U/ml streptolysin S): 1.000 O.D. |
